Several values for one entry are separate records, joined by “and”; a condition that tells them apart may be missing. Equal values may be shown once.
Test system: patients with psoriatic arthritis
Test: Phase 2 trial in psoriatic arthritis: PASI75 response at week 16
Format: in vivo, human
Conditions: for Number of subjects: 12 mg QD
Experimental: In a double-blind Phase 2 trial, 203 patients with psoriatic arthritis were randomized into three groups: deucravacitinib 6 mg once daily (N=70), deucravacitinib 12 mg once daily (N=67), or placebo (N=66). All subjects had active psoriatic arthritis according to the Classification Criteria for Psoriatic Arthritis (CASPAR); for active disease, these criteria required ≥3 tender joint count, ≥3 swollen joint count, and a C-reactive protein level above 3 mg/L. Other inclusion criteria included the following: presence of at least one plaque psoriasis lesion, and prior treatment failure with a non-biologic disease modifying anti-rheumatic drug, a non-steroidal anti-inflammatory drug, or a steroid. With respect to treatment history, approximately 70% of subjects had not received prior treatment with a biologic and were biologic naïve, while up to 30% of subjects had failed or had been intolerant to one TNF-inhibitor (TNF=Tumor necrosis factor, also known as TNFα). Randomization was stratified by prior TNF-inhibitor use (experienced/naïve) and body weight (<90 kg and ≥90 kg).
Clinical measures included the Psoriasis […] (PASI) score for skin psoriasis, American College of Rheumatology 20 (ACR20) response, Psoriatic Arthritis Disease Activity Score (PASDAS), Health Assessment Questionnaire-Disability Index (HAQ-DI), and Disease Activity Score 28 CRP (DAS28). To evaluate the predictive value of different protein measurements for the clinical response to deucravacitinib, baseline protein concentrations for responders and non-responders, as defined by ACR20 or PASI75 at week 16, were compared for each arm (placebo, 6 mg deucravacitinib once-daily, and 12 mg deucravacitinib once-daily).
In addition, a logistic regression model was fit, to determine whether baseline disease score (dichotomized by the median baseline score, into baseline score high and baseline score low groups) was associated with response status. The model generated an odds ratio for each dosed arm versus placebo, in baseline score high and baseline score low groups.
Boxplots for baseline protein level by response were generated with a horizontal line indicating the median protein level at baseline. For each treatment arm, a two-sample t-test was performed to test whether mean baseline serum protein level was different in responders versus non-responders. A Wilcoxon rank sum test (Mann-Whitney U test) was also performed to evaluate the difference in median serum protein level between responders and non-responders. Further, barplots of ACR20 and PASI75 response rate at week 16 for each treatment arm were generated for all subjects (protein level high and protein level low subjects, dichotomized according to median baseline level). Line plots of ACR20 and PASI75 response rate over time for each treatment arm were generated for protein level high and protein level low groups. Logistic regression models were also fit to evaluate associations between baseline protein levels and clinical outcome.
For certain analyses described herein, patients were dichotomized by median values (e.g., of the proteins listed above or other measures) into “high” and “low” groups, such that the high group had values above the median and the low group had values less than or equal to the median.
In addition, logistic regression models were fit for response measures ACR20 and PASI75, to generate the odds ratio of each of the deucravacitinib treatment arms versus placebo, in BD2-high and BD2-low groups. The following logistic regression models were used: • For ACR20 response status: ACR20 (Y/N)=treatment arm+BD2 group+treatment arm*BD2 group+TNF-inhibitor use+baseline weight (continuous). • For PASI75 response status: PASI75 (Y/N)=treatment arm+BD2 group+treatment arm*BD2 group+TNF-inhibitor use+baseline weight (continuous). […]

**Q.** Which results are given for `[2H]C([2H])([2H])NC(=O)c1nnc(NC(=O)C2CC2)cc1Nc1cccc(-c2ncn(C)n2)c1OC` [deucravacitinib, 6-(cyclopropanecarboxamido)-4-((2-methoxy-3-(1-methyl-1H-1,2,4-triazol-3-yl)phenyl)amino)-N-(methyl-d3)pyridazine-3-carboxamide]?
**A.** Number of subjects (PASI75 responder at week 16, above median baseline IL-19 level): 20; Number of subjects (PASI75 responder at week 16, below baseline PASI median 6.6): 11; Number of subjects (PASI75 responder at week 16, below median baseline BD2 level): 19; Number of subjects (PASI75 responder at week 16, below median baseline IL-17A level): 12; Number of subjects (PASI75 responder at week 16, below median baseline IL-19 level): 10; Number of subjects (PASI75 responder, BD2-high-PASI-high): 13; Number of subjects (PASI75 responder, BD2-high-PASI-low): 7; Number of subjects (PASI75 responder, BD2-low-PASI-high): 6; Number of subjects (PASI75 responder, BD2-low-PASI-low): 4; Number of subjects (PASI75 responder, IL-17A-high-PASI-high): 10; Number of subjects (PASI75 responder, IL-17A-high-PASI-low): 8; Number of subjects (PASI75 responder, IL-17A-low-PASI-high): 9; Number of subjects (PASI75 responder, IL-17A-low-PASI-low): 3; Number of subjects (PASI75 responder, IL-19-high-PASI-high): 12; Number of subjects (PASI75 responder, IL-19-high-PASI-low): 8; Number of subjects (PASI75 responder, IL-19-low-PASI-high): 7; Number of subjects (PASI75 responder, IL-19-low-PASI-low): 3; Odds Ratio, PASI75 response status (All patients, 6 mg QD vs placebo, not adjusted for baseline disease activity): 2.88; Odds Ratio for PASI75 response (All patients, 6 mg QD vs placebo, week 16): 2.88; Odds Ratio, PASI75 response status (All patients, 6 mg QD vs placebo, week 16, adjusted for baseline PASI score): 3.052 and 3.05; Odds Ratio, PASI75 response status (All patients, 12 mg QD vs placebo, not adjusted for baseline disease activity): 5.781 and 5.78; Odds Ratio for PASI75 response (All patients, 12 mg QD vs placebo, week 16): 5.781; Odds Ratio, PASI75 response status (All patients, 12 mg QD vs placebo, week 16, adjusted for baseline PASI score): 6.494 and 6.49; Odds Ratio for PASI75 response (All patients, deucravacitinib treatment arms combined vs placebo, week 16): 3.998; Odds Ratio, PASI75 response status (All patients, treatment arms combined vs placebo): 3.998; PASI75 response rate at week 16 (BD2-high group, 6 mg QD and 12 mg QD vs placebo arm (FIG. 7)): higher in both 6 mg QD and 12 mg QD treatment arms compared to the placebo arm; Odds Ratio for PASI75 response (BD2-high-PASI-high, 6 mg QD vs placebo, week 16): 29.67; Odds Ratio for PASI75 response (BD2-high-PASI-high, 12 mg QD vs placebo, week 16): 43.084; Odds Ratio for PASI75 response (BD2-high-PASI-low, 6 mg QD vs placebo, week 16): 2.331; Odds Ratio for PASI75 response (BD2-high-PASI-low, 12 mg QD vs placebo, week 16): 10.995; Odds Ratio for PASI75 response (BD2-low-PASI-high, 6 mg QD vs placebo, week 16): 0.825; Odds Ratio for PASI75 response (BD2-low-PASI-high, 12 mg QD vs placebo, week 16): 7.787; Odds Ratio for PASI75 response (BD2-low-PASI-low, 6 mg QD vs placebo, week 16): 1.093; Odds Ratio for PASI75 response (BD2-low-PASI-low, 12 mg QD vs placebo, week 16): 0.967; Odds Ratio for PASI75 response (BD2 high (baseline above median 9,265 ng/L), 6 mg QD vs placebo, week 16): 10.905; Odds Ratio for PASI75 response (BD2 high (baseline above median 9,265 ng/L), 12 mg QD vs placebo, week 16): 24.118; Odds Ratio for PASI75 response (BD2 high, treatment arms combined vs placebo, week 16): 15.415; Odds Ratio for PASI75 response (BD2 low, 6 mg QD vs placebo, week 16): 0.938; Odds Ratio for PASI75 response (BD2 low, 12 mg QD vs placebo, week 16): 1.695; Odds Ratio for PASI75 response (BD2 low, treatment arms combined vs placebo, week 16): 1.274; Odds Ratio for PASI75 response (Baseline PASI high (above median 6.6), 6 mg QD vs placebo, week 16): 6.94 and 6.937; Odds Ratio for PASI75 response (Baseline PASI high (above median 6.6), 12 mg QD vs placebo, week 16): 15.75; Odds Ratio for PASI75 response (Baseline PASI low (at or below median 6.6), 6 mg QD vs placebo, week 16): 1.26 and 1.258; Odds Ratio for PASI75 response (Baseline PASI low (at or below median 6.6), 12 mg QD vs placebo, week 16): 2.454; Odds Ratio, PASI75 response status (CRP high, 6 mg QD vs placebo): 3.54; Odds Ratio, PASI75 response status (CRP high, 12 mg QD vs placebo): 9.78; Odds Ratio, PASI75 response status (CRP high, treatment arms combined vs placebo): 5.405; Odds Ratio for PASI75 response (CRP level above median and baseline PASI score above median, 6 mg QD vs placebo, week 16): 18.381; Odds Ratio, PASI75 response status (CRP low, 6 mg QD vs placebo): 2.12; Odds Ratio, PASI75 response status (CRP low, 12 mg QD vs placebo): 3.72; Odds Ratio, PASI75 response status (CRP low, treatment arms combined vs placebo): 2.840; Odds Ratio, PASI75 response status (CRP-high-PASI-high, 6 mg QD vs placebo): 18.381

Reference: patent publication US20240390369A1, “METHODS FOR DETERMINING RESPONSIVENESS TO TYK2 INHIBITORS” (Bristol-Myers Squibb Company, priority 2021, published 2024)
